Experimental data from article PMC2923778 (Journal of Molecular Biology, 2010).
Where no end group is shown, it is not given here.

Key:
hSPSB1-elonginBC = tested on: hSPSB1-elonginBC; parameters: method as in PMID 17189197; settings: previous study; cited from earlier work
mSPSB2(12–224) = target: T1, mSPSB2(12–224) (Mus musculus, UniProt O88838); assay: ITC of hPar-4 peptides with mSPSB2(12–224); type: binding, murine; settings: 22 °C, pH 8.0, nm [sic]
T1 construct: mSPSB2(12–224) and mutants used in this study have been described previously; GST (cleaved yes); made in house; host or cells: E. coli Origami B(DE3) pLysS
T1 sequence (O88838 12-224): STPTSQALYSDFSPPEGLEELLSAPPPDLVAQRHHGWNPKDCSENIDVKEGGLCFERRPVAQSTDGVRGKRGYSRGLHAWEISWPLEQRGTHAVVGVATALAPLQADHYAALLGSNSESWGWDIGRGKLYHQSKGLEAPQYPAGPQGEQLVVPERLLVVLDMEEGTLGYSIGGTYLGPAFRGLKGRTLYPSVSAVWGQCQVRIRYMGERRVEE
Method: (§1) Shorter mSPSB constructs were also used for mSPSB1 and mSPSB4 lacking the C-terminal SOCS box region (mSPSB1ΔSB and mSPSB4ΔSB); they were cloned into pGEX-2T (GE Healthcare, UK). […] Each of the mSPSBΔSB constructs was expressed in Origami B(DE3) pLysS cells (Novagen, Madison, WI) as a GST fusion protein at 20 °C for 24 h with 0.5 mM IPTG added at OD600 = 0.6–0.8.
(§2) ITC measurements on mSPSB proteins were performed at 22 °C using a MicroCalorimetry System (MicroCal, Northhampton, MA). mSPSB1, mSPSB2, and mSPSB4 were prepared by dialyzing against 20 mM Tris, 150 mM sodium chloride, and 2.5 mM calcium chloride at pH 8.0. Measurements on hSPSB proteins were performed at 20 °C using a VP-ITC titration calorimeter (MicroCal). hSPSB1 protein was dialyzed against 50 mM Hepes, pH 7.4, 150 mM NaCl, and 1 mM DTT. hSPSB2 and hSPSB4 proteins were dialyzed against 50 mM Hepes, pH 7.4, 150 mM NaCl, and 0.5 mM TCEP. Peptides for each experiment were dissolved in the corresponding dialysis buffers. ITC measurements were routinely carried out by titrating 100 μM peptide solution into 10 μM protein. Dilution enthalpies were determined separately by titrating peptide into buffer and used to correct the enthalpies of the binding of protein and peptide. Data were analyzed using a single binding site model implemented in the Origin software package provided with the instrument.

mSPSB4ΔSB = target: T2, mSPSB4ΔSB (Mus musculus, UniProt Q8R5B6); assay: ITC of hPar-4 peptides with mSPSB4ΔSB; type: binding, murine; settings: 22 °C
T2 construct: mSPSB1 and mSPSB4 lacking the C-terminal SOCS box region (mSPSB1ΔSB and mSPSB4ΔSB); GST (cleaved yes); made in house; host or cells: E. coli Origami B(DE3) pLysS
T2 sequence (Q8R5B6 1-233): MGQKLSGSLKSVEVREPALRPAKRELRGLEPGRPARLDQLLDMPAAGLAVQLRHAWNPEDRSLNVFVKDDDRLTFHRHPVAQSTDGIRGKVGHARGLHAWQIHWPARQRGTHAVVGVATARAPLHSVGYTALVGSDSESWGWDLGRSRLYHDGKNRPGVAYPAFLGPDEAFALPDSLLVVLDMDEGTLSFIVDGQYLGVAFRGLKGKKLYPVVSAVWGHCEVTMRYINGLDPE
Method: as §1, §2

mSPSB1ΔSB = target: T3, mSPSB1ΔSB (Mus musculus, UniProt Q9D5L7); assay: ITC of hPar-4 peptides with mSPSB1ΔSB; type: binding, murine; settings: 22 °C
T3 construct: mSPSB1 and mSPSB4 lacking the C-terminal SOCS box region (mSPSB1ΔSB and mSPSB4ΔSB); GST (cleaved yes); made in house; host or cells: E. coli Origami B(DE3) pLysS
T3 sequence (Q9D5L7 1-231): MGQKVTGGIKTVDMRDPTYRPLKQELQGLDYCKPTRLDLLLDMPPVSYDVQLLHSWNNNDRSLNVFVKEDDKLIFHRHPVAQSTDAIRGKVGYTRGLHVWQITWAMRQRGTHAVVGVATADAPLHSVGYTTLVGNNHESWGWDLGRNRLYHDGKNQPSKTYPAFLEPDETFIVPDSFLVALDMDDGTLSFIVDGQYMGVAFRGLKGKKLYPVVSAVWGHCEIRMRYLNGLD
Excerpt: Shorter mSPSB constructs were also used for mSPSB1 and mSPSB4 lacking the C-terminal SOCS box region (mSPSB1ΔSB and mSPSB4ΔSB); they were cloned into pGEX-2T (GE Healthcare, UK). The shorter mSPSB2 construct excluded the first 11 residues at the N-terminus and the C-terminus SOCS box [mSPSB2(12–224)]. mSPSB2(12–224) and mutants used in this study have been described previously.[21] Each of the mSPSBΔSB constructs was expressed in Origami B(DE3) pLysS cells (Novagen, Madison, WI) as a GST fusion protein at 20 °C for 24 h with 0.5 mM IPTG added at OD600 = 0.6–0.8. The mSPSBΔSB proteins were isolated according to the method used for purifying the mSPSB–elonginBC complex.
as §2

mSPSB4ΔSB (murine) = assay: ITC; 100 μM peptide titrated into 10 μM mSPSB protein; 22 °C; 20 mM Tris, 150 mM sodium chloride, 2.5 mM calcium chloride, pH 8.0; single binding site model
[1] = 20 mM Tris, 150 mM NaCl, 2.5 mM CaCl2, pH 8.0, 100 μM peptide into 10 μM protein, ± standard error of the mean

Row | Compound | Kd (mSPSB2(12–224)) | Kd (mSPSB4ΔSB; [1]) | further results
1 | [N72A]hPar-4(67–81): N72A mutant peptide of hPar-4(67–81) from a previous study (ref 10) (NELNNALPGGAPAAP; UniProt Q96IZ0 67-81, looked up, variant N72A) | – | – | binding to hSPSB1-elonginBC (in words) (hSPSB1-elonginBC): poor binding
2 | AAANELANNLPGGA [[N70A]hPar-4(64–77)] | > 50000 nM | – | Kd (mSPSB4ΔSB; pH 8.0, nm [sic]): > 50000 nM; Kd (mSPSB1ΔSB; pH 8.0, nm [sic]): > 50000 nM
3 | hPar-4(59–77) (peptide) | – | – | Kd (mSPSB4ΔSB (murine)): 189 nM
4 | AAANDLNNNLPGGA [[E68D]hPar-4(64–77)] | – | 47 ± 22 nM | –
5 | AAANELNNNLPGGA [hPar-4(64–77)] | – | 213 ± 7 nM | Kd (mSPSB1ΔSB; [1]): 210 ± 19 nM
6 | CC(C)C[C@H](NC(=O)[C@H](CCC(=O)O)NC(=O)[C@H](CC(N)=O)NC(=O)[C@H](C)NC(=O)[C@H](C)NC(=O)[C@H](C)NC(=O)[C@H](C)NC(=O)[C@H](C)NC(=O)[C@@H]1CCCN1C(=O)[C@@H](NC(=O)CN)[C@@H](C)O)C(=O)N[C@@H](CC(N)=O)C(=O)N[C@@H](CC(N)=O)C(=O)N[C@@H](C)C(=O)N[C@@H](CC(C)C)C(=O)N1CCC[C@H]1C(=O)NCC(=O)NCC(=O)N[C@@H](C)C(=O)O [[N72A]hPar-4(59–77)] | > 50000 nM | – | –
7 | AAANDINNNLPGGA [[E68D,L69I]hPar-4(64–77)] | – | 33 ± 23 nM | Kd (mSPSB1ΔSB; [1]): 40 ± 5 nM
8 | AAANEINNNLPGGA [[L69I]hPar-4(64–77)] | – | 55 ± 8 nM | –
9 | AAANELNANLPGGA [[N71A]hPar-4(64–77)] | > 50000 nM | – | Kd (mSPSB4ΔSB; pH 8.0, nm [sic]): > 50000 nM; Kd (mSPSB1ΔSB; pH 8.0, nm [sic]): > 50000 nM
10 | GTPAAAADNELNNNLPGGA [[A66D]hPar-4(59–77)] | – | 255 ± 5 nM | –
